From PubChem BioAssay AID1963874 (Molecular Pharmacology Branch, DTP, NCI, 2024)

Test system: 253994-281-T-J1-PDC KRAS-mutant spheroids with HUVEC/MSC, viability
Assay: Anticancer human tumor 253994-281-T-J1-PDC patient-derived colorectal carcinoma cell line growth inhibition [KRAS2]
Conditions: for IC50: curve of first compound; for viability, T/C: stronger effect = lower value
Method in brief: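 KRAS-mutant tumor cells were grown as spheroids with HUVEC endothelial cells and human MSCs as stroma. Targeted agents were tested alone and with KRAS pathway inhibitors. Doses started at or near clinical Cmax, or 10 microM, descending half-log.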

[1] = second compound 0.1 µM, first compound 0.000316 µM
[2] = second compound 0.1 µM, first compound 0.001 µM
[3] = second compound 0.1 µM, first compound 0.00316 µM
[4] = second compound 0.1 µM, first compound 0.01 µM
[5] = second compound 0.1 µM, first compound 0.0316 µM
[6] = second compound 0.316 µM, first compound 0.000316 µM
[7] = second compound 0.316 µM, first compound 0.001 µM
[8] = second compound 0.316 µM, first compound 0.00316 µM
[9] = second compound 0.316 µM, first compound 0.01 µM
[10] = second compound 0.316 µM, first compound 0.0316 µM
[11] = second compound 1 µM, first compound 0.000316 µM
[12] = second compound 1 µM, first compound 0.001 µM
[13] = second compound 1 µM, first compound 0.00316 µM
[14] = second compound 1 µM, first compound 0.01 µM
[15] = second compound 1 µM, first compound 0.0316 µM
[16] = second compound 3.16 µM, first compound 0.000316 µM
[17] = second compound 3.16 µM, first compound 0.001 µM
[18] = second compound 3.16 µM, first compound 0.00316 µM
[19] = second compound 3.16 µM, first compound 0.01 µM
[20] = second compound 3.16 µM, first compound 0.0316 µM
[21] = second compound 10 µM, first compound 0.000316 µM
[22] = second compound 10 µM, first compound 0.001 µM
[23] = second compound 10 µM, first compound 0.00316 µM
[24] = second compound 10 µM, first compound 0.01 µM
[25] = second compound 10 µM, first compound 0.0316 µM
[26] = second compound 0.1 µM, first compound 0.1 µM
[27] = second compound 0.316 µM, first compound 0.1 µM
[28] = second compound 1 µM, first compound 0.1 µM
[29] = second compound 3.16 µM, first compound 0.1 µM
[30] = second compound 10 µM, first compound 0.1 µM
[31] = second compound 0.1 µM, first compound 0.316 µM
[32] = second compound 0.1 µM, first compound 1 µM
[33] = second compound 0.1 µM, first compound 3.16 µM
[34] = second compound 0.1 µM, first compound 10 µM
[35] = second compound 0.316 µM, first compound 0.316 µM
[36] = second compound 0.316 µM, first compound 1 µM
[37] = second compound 0.316 µM, first compound 3.16 µM
[38] = second compound 0.316 µM, first compound 10 µM
[39] = second compound 1 µM, first compound 0.316 µM
[40] = second compound 1 µM, first compound 1 µM
[41] = second compound 1 µM, first compound 3.16 µM
[42] = second compound 1 µM, first compound 10 µM
[43] = second compound 3.16 µM, first compound 0.316 µM
[44] = second compound 3.16 µM, first compound 1 µM
[45] = second compound 3.16 µM, first compound 3.16 µM
[46] = second compound 3.16 µM, first compound 10 µM
[47] = second compound 10 µM, first compound 0.316 µM
[48] = second compound 10 µM, first compound 1 µM
[49] = second compound 10 µM, first compound 3.16 µM
[50] = second compound 10 µM, first compound 10 µM
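Also: spheroids exposed to agents for seven days before readout.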
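For viability, T/C in this document: percent of DMSO vehicle control viability.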

Compound: CC(=O)Nc1cccc(-n2c(=O)n(C3CC3)c(=O)c3c(Nc4ccc(I)cc4F)n(C)c(=O)c(C)c32)c1 + COc1cc2nc(C)nc(NC(C)c3cc(N)cc(C(F)(F)F)c3)c2cc1OC1CCOC1
- IC50 (second compound 0.1 µM): 0.473 nM
- IC50 (second compound 0.316 µM): 0.318 nM
- IC50 (second compound 1 µM): 0.331 nM
- IC50 (second compound 3.16 µM): 0.154 nM
- IC50 (second compound 10 µM): 0.173 nM
- viability, T/C (second compound 0.1 µM, first compound 0.0001 µM): 82.8%
- viability, T/C [1]: 60.4%
- viability, T/C [2]: 30.9%
- viability, T/C [3]: 14.4%
- viability, T/C [4]: 10.5%
- viability, T/C [5]: 5.47%
- viability, T/C (second compound 0.316 µM, first compound 0.0001 µM): 68%
- viability, T/C [6]: 50.7%
- viability, T/C [7]: 27.9%
- viability, T/C [8]: 14.8%
- viability, T/C [9]: 10.7%
- viability, T/C [10]: 5.1%
- viability, T/C (second compound 1 µM, first compound 0.0001 µM): 59.9%
- viability, T/C [11]: 51.7%
- viability, T/C [12]: 23.5%
- viability, T/C [13]: 11.6%
- viability, T/C [14]: 9.28%
- viability, T/C [15]: 4.8%
- viability, T/C (second compound 3.16 µM, first compound 0.0001 µM): 59.7%
- viability, T/C [16]: 34%
- viability, T/C [17]: 20.2%
- viability, T/C [18]: 10.6%
- viability, T/C [19]: 8.21%
- viability, T/C [20]: 4.13%
- viability, T/C (second compound 10 µM, first compound 0.0001 µM): 74.6%
- viability, T/C [21]: 21.5%
- viability, T/C [22]: 13.6%
- viability, T/C [23]: 8.98%
- viability, T/C [24]: 5.81%
- viability, T/C [25]: 2.33%

Compound: CN(C)C/C=C/C(=O)Nc1cc2c(Nc3ccc(F)c(Cl)c3)ncnc2cc1O[C@H]1CCOC1 + COc1cc2nc(C)nc(NC(C)c3cc(N)cc(C(F)(F)F)c3)c2cc1OC1CCOC1
- IC50 (second compound 0.1 µM): > 100 nM
- IC50 (second compound 0.316 µM): > 100 nM
- IC50 (second compound 1 µM): > 100 nM
- IC50 (second compound 3.16 µM): > 100 nM
- IC50 (second compound 10 µM): > 100 nM
- viability, T/C [1]: 100%
- viability, T/C [2]: 98.2%
- viability, T/C [3]: 108%
- viability, T/C [4]: 85.8%
- viability, T/C [5]: 90%
- viability, T/C [26]: 67.7%
- viability, T/C [6]: 86.3%
- viability, T/C [7]: 97.8%
- viability, T/C [8]: 86.8%
- viability, T/C [9]: 81.5%
- viability, T/C [10]: 73.5%
- viability, T/C [27]: 57.8%
- viability, T/C [11]: 84.4%
- viability, T/C [12]: 88.7%
- viability, T/C [13]: 116%
- viability, T/C [14]: 90%
- viability, T/C [15]: 91.2%
- viability, T/C [28]: 69.8%
- viability, T/C [16]: 94.8%
- viability, T/C [17]: 87.4%
- viability, T/C [18]: 81.3%
- viability, T/C [19]: 86.8%
- viability, T/C [20]: 61.2%
- viability, T/C [29]: 55.2%
- viability, T/C [21]: 83.5%
- viability, T/C [22]: 84.1%
- viability, T/C [23]: 82.9%
- viability, T/C [24]: 79.2%
- viability, T/C [25]: 68.8%
- viability, T/C [30]: 54.5%

Compound: COC(=O)c1ccc2c(C(=Nc3ccc(N(C)C(=O)CN4CCN(C)CC4)cc3)c3ccccc3)c(O)[nH]c2c1 + COc1cc2nc(C)nc(NC(C)c3cc(N)cc(C(F)(F)F)c3)c2cc1OC1CCOC1
- IC50 (second compound 0.1 µM): 5280 nM
- IC50 (second compound 0.316 µM): 5430 nM
- IC50 (second compound 1 µM): 4650 nM
- IC50 (second compound 3.16 µM): 2290 nM
- IC50 (second compound 10 µM): 721 nM
- viability, T/C [5]: 100%
- viability, T/C [26]: 103%
- viability, T/C [31]: 103%
- viability, T/C [32]: 85.1%
- viability, T/C [33]: 85.6%
- viability, T/C [34]: 9.83%
- viability, T/C [10]: 93.6%
- viability, T/C [27]: 75%
- viability, T/C [35]: 79.2%
- viability, T/C [36]: 91.6%
- viability, T/C [37]: 74.2%
- viability, T/C [38]: 22.8%
- viability, T/C [15]: 71.9%
- viability, T/C [28]: 71.6%
- viability, T/C [39]: 73.1%
- viability, T/C [40]: 85.1%
- viability, T/C [41]: 71.3%
- viability, T/C [42]: 7.12%
- viability, T/C [20]: 73.4%
- viability, T/C [29]: 75.4%
- viability, T/C [43]: 84.4%
- viability, T/C [44]: 74.5%
- viability, T/C [45]: 40.2%
- viability, T/C [46]: 0.2%
- viability, T/C [25]: 68.6%
- viability, T/C [30]: 79.1%
- viability, T/C [47]: 48.6%
- viability, T/C [48]: 54.4%
- viability, T/C [49]: 12.4%
- viability, T/C [50]: 0.21%

Compound: O=C(c1cc(Cc2n[nH]c(=O)c3ccccc23)ccc1F)N1CCN(C(=O)C2CC2)CC1 + COc1cc2nc(C)nc(NC(C)c3cc(N)cc(C(F)(F)F)c3)c2cc1OC1CCOC1
- IC50 (second compound 0.1 µM): > 10000 nM
- IC50 (second compound 0.316 µM): > 10000 nM
- IC50 (second compound 1 µM): > 10000 nM
- IC50 (second compound 3.16 µM): > 10000 nM
- IC50 (second compound 10 µM): > 10000 nM
- viability, T/C [5]: 86.4%
- viability, T/C [26]: 88.5%
- viability, T/C [31]: 85.3%
- viability, T/C [32]: 91.2%
- viability, T/C [33]: 96.1%
- viability, T/C [34]: 106%
- viability, T/C [10]: 92.3%
- viability, T/C [27]: 82.5%
- viability, T/C [35]: 81.1%
- viability, T/C [36]: 94.3%
- viability, T/C [37]: 90.7%
- viability, T/C [38]: 68.6%
- viability, T/C [15]: 102%
- viability, T/C [28]: 87.7%
- viability, T/C [39]: 92.4%
- viability, T/C [40]: 103%
- viability, T/C [41]: 115%
- viability, T/C [42]: 90.2%
- viability, T/C [20]: 92.7%
- viability, T/C [29]: 90.5%
- viability, T/C [43]: 89.3%
- viability, T/C [44]: 129%
- viability, T/C [45]: 74.5%
- viability, T/C [46]: 86.6%
- viability, T/C [25]: 93.6%
- viability, T/C [30]: 98.7%
- viability, T/C [47]: 90.8%
- viability, T/C [48]: 84.3%
- viability, T/C [49]: 99%
- viability, T/C [50]: 106%
